Measurements reported in article PMC7870638, “Toxicity of anticancer drugs in human placental tissue explants and trophoblast cell lines” (Archives of Toxicology, 2020).

Experiments:
[1] = test system: JEG-3, BeWo, and syncytialised BeWo cells; assay: MTT assay, cell viability in all three trophoblast cell types; format: cell-based, human
Protocol: (§1) Two human choriocarcinoma-derived placental cell lines were used: JEG3 and BeWo (ATCC catalog numbers HTB-36 and CCL-98, respectively). JEG3 cells were cultured in DMEM and Bewo cells in Ham’s F-12 K medium, supplemented with 10% fetal calf serum and 1% penicillin and streptomycin under a humidified 5% CO2/95% air atmosphere at 37 °C. Cells were passaged (JEG3: 1:10 twice a week; BeWo: 1:3 once a week) after trypsinization with 0.05% Trypsin–EDTA when cells reached approximately 80% confluency. For BeWo cells, the medium was renewed 3 times a week. To create syncytialised BeWo cells, regular BeWo cells were treated with 50 μM forskolin (Sigma-Aldrich, St. Louis, MO, USA) in 0.1% DMSO, to initiate syncytialisation. As forskolin increases the intracellular cAMP levels, it activates protein kinase A after which syncytialisation and fusion of trophoblasts occurs (Orendi et al. [2010]).
The cells were seeded in 96-well culture plates at a cell density of 1 × 10^4 cells/well and cultured for 24 h at 37 °C in a humidified atmosphere with 5% CO2 to allow for attachment. Subsequently, the cells were exposed to the TKIs and cytostatic drugs in concentrations ranging from 100 pM to 100 µM (triplicate). […] This is a minimum percentage DMSO, but required as cells required co-incubation with forskolin to syncytialise. Crizotinib 100 μM was used as positive control. After attachment, cells were incubated with the compounds for 48 h, after which the medium was removed and the cells were exposed to […] diluted in medium. After 3 h of incubation with MTT, the formazan crystals formed were solubilized in 50 μL DMSO. The absorbance of formazan was measured at 540 nm by a Biorad Multiwell Plate reader.

BeWo cells = test system: BeWo cells; parameters: method as in Soininen et al. [2015]; conditions: after 4 h of exposure, ref Soininen et al. [2015], read-out: IC50 cell viability; cited from earlier work
[2] = MTT assay in placental explants (tissue viability); format: cell-based, human; conditions: female, human, term placental villous tissue explants, 72 h exposure
Protocol: (§2) Term placentas, obtained from consenting women following uncomplicated pregnancies and delivered vaginally or by caesarean section, were used for all experiments. Approval of the Regional Committee on Research involving Human Subjects was obtained (File 2014-1397). Within 60 min after delivery, 1 cm^3 villous tissue samples were excised at random areas midway between the umbilical cord and distal edge of the placenta. To remove maternal blood, samples were carefully rinsed in sterile Dulbecco’s phosphate-buffered saline supplemented with calcium chloride and magnesium chloride (Sigma-Aldrich, St. Louis, MO, USA) which was kept at 37 °C. The villous tissue was cut into small pieces weighing approximately 5 mg, after which 4–6 pieces of tissue were cultured together in individual wells of a 6-well plate. The explants were cultured in 1.5 ml of RPMI-1640 culture medium (Gibco, USA) with 15% heat-inactivated fetal bovine serum, 1% penicillin streptomycin, 1% gentamicin, and 1% amphotericin B (Life Technologies, USA). Placental explant cultures were kept for 7 days at 37 °C in a humidified gas mixture of 5% CO2 and 95% air. The culture medium was renewed every 24 h.
(§3) Treatment with TKIs or cytostatic drugs was started at day four of culture to allow for the syncytiotrophoblasts to regenerate (Siman et al. [2001]). Explants were then incubated for 72 h with 1, 10 or 100 µM of all TKIs or cytostatic drugs mentioned above. […] Culture medium was replaced every 24 h with new medium containing the original concentration of the drug. Supernatant was collected each day and stored at − 20 °C for hormone quantification.
(§4) To evaluate tissue and cell viability, after 72 h of drug exposure, tissue explants were incubated for 4 h at 37 °C with 1 mM 3-(4,5-dimethylthiazol-2-yl)-[…] (MTT) in RPMI. After incubation, the medium was removed, the tissue in each well was weighed, and the explants were subsequently placed in 500 µL DMSO for 10 min to dissolve the formazan formed. After 10 min, the DMSO was transferred to a 96-well plate and absorbance was measured at 540 nm using a Biorad Multiwell Plate reader.
(§5) Construction of graphs and data analysis were performed using Graphpad Prism version 8.4.2. MTT conversion and progesterone and estrone release in placental explants were normalized to tissue wet weight. To compare the effects on tissue viability and cell viability, the data were normalized to control conditions and mean differences were tested using an unpaired t test, a one-way ANOVA, or a two-way repeated measures ANOVA. The change in progesterone release rate as compared to the baseline (at 0 h) was calculated for each well separately, after which data were normalized to control conditions. One-way ANOVA was used to assess effects at the 72 h time point only. The Bonferroni post hoc test was applied to compare treatment conditions with controls. Data are described as mean ± SD in Figs. 2 and 3 and as mean ± SEM in all other figures where comparisons of means between groups were made. The mean and SD or SEM were calculated from all individual results (three experiments performed in duplicate or triplicate wells, n = 6 or n = 9).

[3] = test system: progesterone and estrone release in placental explants; assay: Steroid (progesterone, estrone) release in placental explants, LC-MS/MS of culture medium; format: cell-based, human; conditions: placental explants, 1, 10 and 100 µM, after 24 h
Protocol: as §2
Treatment with TKIs or cytostatic drugs was started at day four of culture to allow for the syncytiotrophoblasts to regenerate (Siman et al. [2001]). Explants were then incubated for 72 h with 1, 10 or 100 µM of all TKIs or cytostatic drugs mentioned above. […] For cisplatin and carboplatin, culture medium was used as a solvent. Culture medium was replaced every 24 h with new medium containing the original concentration of the drug. Supernatant was collected each day and stored at − 20 °C for hormone quantification.
(§6) Progesterone and estrone concentrations in culture medium were determined by LC–MS/MS analysis using an Acquity UPLC (Waters, Milford, MA, USA) equipped with a C18 UPLC column (Acquity UPLC BEH C18, 2.1 × 50 mm, Milford, MA, USA, Waters) coupled to a Xevo TQ-S (Waters) triple quadrupole mass spectrometer. Progesterone-D9 was used as internal standard and calibration curves were made in the matrix. To precipitate proteins, methanol containing the internal standard was added to culture medium samples in a ratio 3:1 (MeOH:medium). Following subsequent centrifugation (13,000g for 3 min), 1 μl of the clear supernatant was injected into the LC–MS to quantify progesterone and estrone. Solvent A consisted of 0.2 mM NH4F in water and solvent B consisted of 0.2 mM NH4F in Acetonitrile:Methanol in a ratio of 75:25%. Separation was performed at a flow rate of 350 µl/min under the following gradient conditions: 0 min 60% eluent A, 3.0 min 0% eluent A, 4 min 0% eluent A, 5 min 60% eluent A. The effluent from the UPLC was passed directly into the electrospray ion source. Positive electrospray ionization was achieved using nitrogen as a desolation gas with ionization voltage at 600 V. The source temperature was set at 500 °C and argon was used as collision gas. The following SRM transitions were used: m/z 315.10 (parent ion) to m/z 69.9 and m/z 108.9 (both product ions) for progesterone, m/z 269.0 (parent ion) to m/z 144.9 and 158.9 (product ions) for estrone, and m/z 324.2 (parent ion) to m/z 99.9 and m/z 112.9 (product ions) for the internal standard d9-progesterone. We also attempted to quantify estradiol and estriol levels in the culture medium of both explants and cells, but these were below the detection limit.
Construction of graphs and data analysis were performed using Graphpad Prism version 8.4.2. MTT conversion and progesterone and estrone release in placental explants were normalized to tissue wet weight. To compare the effects on tissue viability and cell viability, the data were normalized to control conditions and mean differences were tested using an unpaired t test, a one-way ANOVA, or a two-way repeated measures ANOVA. […]

[4] = parameters: method as in Berveiller and Mir [2012]; Soininen et al. [2015]; conditions: ref Berveiller and Mir [2012]; Soininen et al. [2015]; cited from earlier work
syncytialised BeWo cells = format: cell-based, human; conditions: 48 h exposure
Protocol: The cells were seeded in 96-well culture plates at a cell density of 1 × 10^4 cells/well and cultured for 24 h at 37 °C in a humidified atmosphere with 5% CO2 to allow for attachment. Subsequently, the cells were exposed to the TKIs and cytostatic drugs in concentrations ranging from 100 pM to 100 µM (triplicate). […] This is a minimum percentage DMSO, but required as cells required co-incubation with forskolin to syncytialise. Crizotinib 100 μM was used as positive control. […] The absorbance of formazan was measured at 540 nm by a Biorad Multiwell Plate reader.

[5] = test system: progesterone release in syncytialised BeWo cells; assay: Steroidogenesis (progesterone release) in syncytialised BeWo cells; format: cell-based, human; conditions: 48 h, crizotinib 1 μM, paclitaxel 3 nM, cisplatin 100 μM, carboplatin 100 μM, not statistically significant
Protocol: as §1
For doxorubicin, only two concentrations were tested. Conditioned medium, containing the secreted hormones, was collected after 48 h exposure to the TKIs and cytostatic drugs and stored at − 80 °C until analysis. To eliminate the influence of the varying cell densities between the wells, total protein content in each well was measured. Cells were washed twice with Hank’s buffered Salt Solution (HBSS) and lysed with 50 μL 1 M sodium hydroxide (NaOH). Subsequently, 10 μL of the lysate was mixed with 190 μL of 5 times diluted dye reagent (Biorad protein assay). The absorbance was measured at 595 nm using a Biorad Multiwell Plate reader. The quantities of protein in the samples were determined via a calibration curve of bovine serum albumin.
as §6

[6] = parameters: method as in Berveiller et al. [2018]; conditions: in vivo; ref Berveiller et al. [2018]; cited from earlier work
[7] = test system: placental villous explants; assay: MTT assay in placental explants (tissue viability); format: cell-based, human; conditions: 72 h exposure, 1, 10 or 100 µM
Protocol: as §2, §3, §4, §5

[8] = test system: undifferentiated BeWo cells; assay: MTT assay, cell viability in undifferentiated BeWo cells; format: cell-based; conditions: Homo sapiens, 48 h exposure, read-out: concentration giving 50% reduction in cell viability
Protocol: as §1
The cells were seeded in 96-well culture plates at a cell density of 1 × 10^4 cells/well and cultured for 24 h at 37 °C in a humidified atmosphere with 5% CO2 to allow for attachment. Subsequently, the cells were exposed to the TKIs and cytostatic drugs in concentrations ranging from 100 pM to 100 µM (triplicate). […] The absorbance of formazan was measured at 540 nm by a Biorad Multiwell Plate reader.

[9] = test system: isolated third trimester primary trophoblasts; parameters: method as in Berveiller et al. [2018]; conditions: ref Berveiller et al. [2018], read-out: concentration giving 50% reduction in cell viability; cited from earlier work

Structure (SMILES)	potency on viability in cells relative to explants (times more potent) ([1]; all cell types (48 h) versus placental explants (72 h))	effect on viability (in words) ([1]; all cell types, 1 µM, 48 h exposure)	IC50 (BeWo cells) [nM]	viability at 72 h, 1 µM ([2]; 1 µM, read-out: viability in explants, % of control values) [%]	viability at 72 h, 100 µM ([2]; 100 µM, mean ± SEM, read-out: tissue viability, % of control) [%]	progesterone production (in words) [3]	uptake in ex vivo perfused placental tissue, % of initial maternal concentrations [4]	cytotoxicity in syncytialised BeWo cells compared to undifferentiated BeWo and JEG3 cells (in words) (syncytialised BeWo cells)	IC50 ([1]; Homo sapiens, all cell types (JEG-3, BeWo, syncytialised BeWo), 48 h exposure, read-out: concentration at which cell viability was reduced to 50% or less) [nM]	progesterone release (in words) [5]	concentration in placental tissue compared to maternal levels at delivery [6]	effect on tissue viability (in words) [7]	IC50 [8] [nM]	IC50 [9] [nM]
COc1cccc2c1C(=O)c1c(O)c3c(c(O)c1C2=O)C[C@@](O)(C(=O)CO)C[C@@H]3O[C@H]1C[C@H](N)[C@H](O)[C@H](C)O1 [doxorubicin]	approximately 10 times	fully inhibited viability in all cell types	600	83 ± 7	14 ± 2	induced progesterone production	38–70%	–	–	–	–	–	–	–
CC(=O)O[C@H]1C(=O)[C@@]2(C)[C@H]([C@H](OC(=O)c3ccccc3)[C@]3(O)C[C@H](OC(=O)[C@H](O)[C@@H](NC(=O)c4ccccc4)c4ccccc4)C(C)=C1C3(C)C)[C@]1(OC(C)=O)CO[C@@H]1C[C@@H]2O [paclitaxel]	–	–	–	–	–	–	–	consistently less cytotoxic in syncytialised BeWo cells	3 to 10	slight induction of progesterone release	ten-fold higher	moderately affected tissue viability, but this was not statistically significant	1 to 3	18 to 180
